Assay results: patent publication US10988477B2 (Merck Patent GmbH, priority 2018, dated 2021)

Molecular target: GCN2 kinase (Homo sapiens, UniProt Q9P2K8)
Experiment: GCN2 enzyme inhibition assay (Transcreener ADP2 fluorescence polarization)
Assay type: biochemical
Conditions: 280 μM ATP, 4 nM GCN2 kinase
Procedure, shortened: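 Inhibition of 4 nM GCN2 was measured with compound up to 8 μM final, ATP 280 μM and (RS)7 peptide 200 μM over a 1 h, 25 °C reaction. ADP FP readout; IC50 and Ki(app) calculated from percent inhibition.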

Sequence of GCN2 kinase (Q9P2K8 whole entry): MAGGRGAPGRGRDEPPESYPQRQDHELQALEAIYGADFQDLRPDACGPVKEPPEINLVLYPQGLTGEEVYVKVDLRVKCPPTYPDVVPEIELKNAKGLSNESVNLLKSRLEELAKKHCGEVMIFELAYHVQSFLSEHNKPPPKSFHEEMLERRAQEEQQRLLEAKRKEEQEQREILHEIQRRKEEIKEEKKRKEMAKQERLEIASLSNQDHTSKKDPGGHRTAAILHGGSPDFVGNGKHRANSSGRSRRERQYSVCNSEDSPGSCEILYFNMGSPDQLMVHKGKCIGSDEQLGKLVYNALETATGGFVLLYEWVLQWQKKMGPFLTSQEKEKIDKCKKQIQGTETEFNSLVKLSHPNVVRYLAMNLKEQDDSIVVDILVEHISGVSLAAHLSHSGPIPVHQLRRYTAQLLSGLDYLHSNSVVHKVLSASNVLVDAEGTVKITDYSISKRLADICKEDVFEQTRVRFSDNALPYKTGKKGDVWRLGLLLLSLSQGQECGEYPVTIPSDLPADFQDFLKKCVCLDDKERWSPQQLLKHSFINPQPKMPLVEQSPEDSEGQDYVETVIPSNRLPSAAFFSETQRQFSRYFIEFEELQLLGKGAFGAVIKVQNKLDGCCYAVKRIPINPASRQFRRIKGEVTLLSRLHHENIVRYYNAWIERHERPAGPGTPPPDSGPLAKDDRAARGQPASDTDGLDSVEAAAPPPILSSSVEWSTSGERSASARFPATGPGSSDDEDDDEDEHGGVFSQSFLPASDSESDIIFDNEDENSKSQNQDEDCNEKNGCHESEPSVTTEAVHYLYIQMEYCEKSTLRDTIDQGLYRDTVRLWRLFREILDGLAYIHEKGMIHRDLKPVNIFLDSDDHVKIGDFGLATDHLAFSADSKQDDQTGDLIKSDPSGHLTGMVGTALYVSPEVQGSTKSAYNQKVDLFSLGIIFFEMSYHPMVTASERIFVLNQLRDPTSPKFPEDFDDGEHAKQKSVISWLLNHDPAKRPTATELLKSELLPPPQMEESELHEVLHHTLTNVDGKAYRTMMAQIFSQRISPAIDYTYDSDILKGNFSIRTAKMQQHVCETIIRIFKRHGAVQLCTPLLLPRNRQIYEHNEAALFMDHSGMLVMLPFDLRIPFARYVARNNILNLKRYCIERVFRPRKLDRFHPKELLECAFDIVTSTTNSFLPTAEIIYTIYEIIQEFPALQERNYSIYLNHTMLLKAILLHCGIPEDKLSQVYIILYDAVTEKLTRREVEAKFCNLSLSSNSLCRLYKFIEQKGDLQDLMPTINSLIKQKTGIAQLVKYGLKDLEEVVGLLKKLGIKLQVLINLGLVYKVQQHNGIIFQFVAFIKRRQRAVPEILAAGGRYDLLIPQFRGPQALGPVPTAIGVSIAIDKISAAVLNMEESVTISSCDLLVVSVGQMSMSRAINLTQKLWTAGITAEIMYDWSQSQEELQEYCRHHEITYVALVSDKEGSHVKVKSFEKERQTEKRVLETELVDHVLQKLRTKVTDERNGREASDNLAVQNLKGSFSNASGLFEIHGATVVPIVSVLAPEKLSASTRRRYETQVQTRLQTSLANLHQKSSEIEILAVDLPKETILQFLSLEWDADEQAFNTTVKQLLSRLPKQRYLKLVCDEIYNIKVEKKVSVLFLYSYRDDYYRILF

Compound | Ki (compounds of Formula II) | other results
Cc1nn(C)cc1C1CN(c2cc(-c3cnc4ccc(C(F)(F)F)nn34)ncn2)C[C@@H](C)O1 (stereo in doubt) [II-760, (2R,6R)-2-(1,3-dimethyl-1H-pyrazol-4-yl)-6-methyl-4-(6-(6-(trifluoromethyl)imidazo[1,2-b]pyridazin-3-yl)pyrimidin-4-yl)morpholine] |  | IC50 (compounds of Formula II): 10 to 1000 nM
Cc1nn(C)cc1C1CN(c2cc(-c3cnc4ccc(C(F)(F)F)nn34)ncn2)C[C@@H](C)O1 (stereo in doubt) [II-761, (2S,6R)-2-(1,3-dimethyl-1H-pyrazol-4-yl)-6-methyl-4-(6-(6-(trifluoromethyl)imidazo[1,2-b]pyridazin-3-yl)pyrimidin-4-yl)morpholine] |  | IC50 (compounds of Formula II): > 1000 nM
Cc1n[nH]cc1[C@H]1CN(c2ccnc(-c3cnc4cnc(C(F)(F)F)cn34)n2)C[C@@H](C)O1 (stereo in doubt) [IV-762, (2R,6S)-2-methyl-6-(3-methyl-1H-pyrazol-4-yl)-4-(2-(6-(trifluoromethyl)imidazo[1,2-a]pyrazin-3-yl)pyrimidin-4-yl)morpholine] |  | IC50 (compounds of Formula IV): 10 to 1000 nM
O=C1CCN(c2ccnc(-c3cnc4sc(C(F)(F)F)cn34)n2)CCN1 [Compound V-8, 1-[2-[2-(Trifluoromethyl)imidazo[2,1-b]thiazol-5-yl]pyrimidin-4-yl]-1,4-diazepan-5-one] |  | Ki (compounds of Formula V): 100 to 1000 nM
CS(C)(=O)=NC1CCCN(c2ccnc(-c3cnc4sc(C(F)(F)F)cn34)n2)C1 (stereo not shown) [Compound V-9, Dimethyl((1-(2-(2-(trifluoromethyl)imidazo[2,1-b]thiazol-5-yl)pyrimidin-4-yl)piperidin-3-yl)imino)-λ^6-sulfanone] |  | Ki (compounds of Formula V): 100 to 1000 nM
CS(=N)(=O)NC[C@@H]1CN(c2cc(-c3cnc4ccc(C(F)F)nn34)ncn2)CCO1 (stereo partly drawn) [II-23, N—(((S)-4-(6-(6-(Difluoromethyl)imidazo[1,2-b]pyridazin-3-yl)pyrimidin-4-yl)morpholin-2-yl)methyl)methanesulfonimidamide] | 10 to 1000 nM | 
CC1C(CO)N(C(C)(C)C)CCN1c1cc(-c2cnc3ccc(C(F)F)nn23)ncn1 (stereo not shown) [II-43, (1-(tert-Butyl)-4-(6-(6-(difluoromethyl)imidazo[1,2-b]pyridazin-3-yl)pyrimidin-4-yl)-3-methylpiperazin-2-yl)methanol] | > 1000 nM | 
CS(=O)(=O)NCC1CCCN(c2cc(-c3cnc4ccc(C(F)F)nn34)cc(NCCO)n2)C1 (stereo not shown) [II-91, N-((1-(4-(6-(Difluoromethyl)imidazo[1,2-b]pyridazin-3-yl)-6-((2-hydroxyethyl)amino)pyridin-2-yl)piperidin-3-yl)methyl)methanesulfonamide] | < 10 nM | 
FC(F)c1ccc2ncc(-c3ccnc(N4C[C@@H]5C[C@H]4CN5)c3)n2n1 [II-165, 3-(2-((1S,4S)-2,5-Diazabicyclo[2.2.1]heptan-2-yl)pyridin-4-yl)-6-(difluoromethyl)imidazo[1,2-b]pyridazine] | 10 to 1000 nM | 
Clc1ccc2ncc(-c3ccnc(N4CCNCC4)c3)n2n1 [II-220, 6-Chloro-3-(2-(piperazin-1-yl)pyridin-4-yl)imidazo[1,2-b]pyridazine] | > 1000 nM | 
CNS(=O)(=O)CC1CCCN(c2cc(-c3cnc4ccc(C(F)F)nn34)ncn2)C1 (stereo not shown) [II-236, 1-(1-(6-(6-(Difluoromethyl)imidazo[1,2-b]pyridazin-3-yl)pyrimidin-4-yl)piperidin-3-yl)-N-methylmethanesulfonamide] | 10 to 1000 nM | 
CCC1COC(CNS(C)(=O)=O)CN1c1cc(-c2cnc3ccc(C(F)F)nn23)ncn1 (stereo not shown) [II-269, N-((4-(6-(6-(Difluoromethyl)imidazo[1,2-b]pyridazin-3-yl)pyrimidin-4-yl)-5-ethylmorpholin-2-yl)methyl)methanesulfonamide] | 10 to 1000 nM | 
CN1CCN(c2cc(-c3cnc4ccc(C(F)F)nn34)ncn2)CC1CS(N)(=O)=O (stereo not shown) [II-464, (4-(6-(6-(Difluoromethyl)imidazo[1,2-b]pyridazin-3-yl)pyrimidin-4-yl)-1-methylpiperazin-2-yl)methanesulfonamide] | 10 to 1000 nM | 
COCCN1CCN(c2cc(-c3cnc4ccc(C(F)F)nn34)ncn2)C(C)C1CNS(C)(=O)=O (stereo not shown) [II-494, N-((4-(6-(6-(Difluoromethyl)imidazo[1,2-b]pyridazin-3-yl)pyrimidin-4-yl)-1-(2-methoxyethyl)-3-methylpiperazin-2-yl)methyl)methanesulfonamide] | < 10 nM | 
N#CCC1CCCN(c2cc(-c3cnc4ccc(C(F)(F)F)nn34)ncn2)C1 (stereo not shown) [II-501, 2-(1-(6-(6-(Trifluoromethyl)imidazo[1,2-b]pyridazin-3-yl)pyrimidin-4-yl)piperidin-3-yl)acetonitrile] | 10 to 1000 nM | 
CC1C(CNS(C)(=O)=O)N(C(C)C)CCN1c1cc(-c2cnc3ccc(C(F)F)nn23)ncn1 (stereo not shown) [II-507, N-((4-(6-(6-(Difluoromethyl)imidazo[1,2-b]pyridazin-3-yl)pyrimidin-4-yl)-1-isopropyl-3-methylpiperazin-2-yl)methyl)methanesulfonamide] | < 10 nM | 
O=C(O)[C@@H]1CCCN(c2cc(-c3cnc4ccc(C(F)F)nn34)ncn2)C1 [II-508, (R)-1-(6-(6-(Difluoromethyl)imidazo[1,2-b]pyridazin-3-yl)pyrimidin-4-yl)piperidine-3-carboxylic acid] | 10 to 1000 nM | 

Compound | Ki (compounds of Formula II) | other results
N#CCC1CN(c2cc(-c3cnc4ccc(C(F)F)nn34)ncn2)CCO1 (stereo not shown) [II-512, 2-(4-(6-(6-(Difluoromethyl)imidazo[1,2-b]pyridazin-3-yl)pyrimidin-4-yl)morpholin-2-yl)acetonitrile] | 10 to 1000 nM | 
N#CCC1CN(c2cc(-c3cnc4ccc(C(F)(F)F)nn34)ncn2)CCO1 (stereo not shown) [II-513, 2-(4-(6-(6-(Trifluoromethyl)imidazo[1,2-b]pyridazin-3-yl)pyrimidin-4-yl)morpholin-2-yl)acetonitrile] | 10 to 1000 nM | 
CN1CCN(c2cc(-c3cnc4ccc(C(F)F)nn34)ncn2)CC1CCO (stereo not shown) [II-514, 2-(4-(6-(6-(Difluoromethyl)imidazo[1,2-b]pyridazin-3-yl)pyrimidin-4-yl)-1-methylpiperazin-2-yl)ethan-1-ol] | 10 to 1000 nM | 
CC(=O)N1CCN(c2cc(-c3cnc4ccc(C(F)F)nn34)ncn2)C(C)C1CNS(C)(=O)=O (stereo not shown) [II-515, N-((1-Acetyl-4-(6-(6-(difluoromethyl)imidazo[1,2-b]pyridazin-3-yl)pyrimidin-4-yl)-3-methylpiperazin-2-yl)methyl)methanesulfonamide] | < 10 nM | 
OC[C@@H]1CCCN(c2cc(-c3cnc4ccc(C(F)(F)F)nn34)ncn2)C1 [II-517, (R)-(1-(6-(6-(Trifluoromethyl)imidazo[1,2-b]pyridazin-3-yl)pyrimidin-4-yl)piperidin-3-yl)methanol] | 10 to 1000 nM | 
[2H]C([2H])(NS(C)(=O)=O)C1CCCN(c2cc(-c3cnc4ccc(C(F)F)nn34)ncn2)C1 (stereo not shown) [II-524, N-((1-(6-(6-(Difluoromethyl)imidazo[1,2-b]pyridazin-3-yl)pyrimidin-4-yl)piperidin-3-yl)methyl-d2)methanesulfonamide] | < 10 nM | 
N#CC1CN(c2cc(-c3cnc4ccc(C(F)F)nn34)ncn2)CCO1 (stereo not shown) [II-531, 4-(6-(6-(Difluoromethyl)imidazo[1,2-b]pyridazin-3-yl)pyrimidin-4-yl)morpholine-2-carbonitrile] | 10 to 1000 nM | 
N#CC1CCCN(c2cc(-c3cnc4ccc(C(F)F)nn34)ncn2)C1 (stereo not shown) [II-532, 1-(6-(6-(Difluoromethyl)imidazo[1,2-b]pyridazin-3-yl)pyrimidin-4-yl)piperidine-3-carbonitrile] | 10 to 1000 nM | 
N#CC1CN(c2cc(-c3cnc4ccc(C(F)(F)F)nn34)ncn2)CCO1 (stereo not shown) [II-533, 4-(6-(6-(Trifluoromethyl)imidazo[1,2-b]pyridazin-3-yl)pyrimidin-4-yl)morpholine-2-carbonitrile] | 10 to 1000 nM | 
N#CC1CCCN(c2cc(-c3cnc4ccc(C(F)(F)F)nn34)ncn2)C1 (stereo not shown) [II-534, 1-(6-(6-(Trifluoromethyl)imidazo[1,2-b]pyridazin-3-yl)pyrimidin-4-yl)piperidine-3-carbonitrile] | 10 to 1000 nM | 
CC1C(CCO)N(C)CCN1c1cc(-c2cnc3ccc(C(F)F)nn23)ncn1 (stereo not shown) [II-536, 2-(4-(6-(6-(Difluoromethyl)imidazo[1,2-b]pyridazin-3-yl)pyrimidin-4-yl)-1,3-dimethylpiperazin-2-yl)ethan-1-ol] | 10 to 1000 nM | 
CC(=O)N1CCC(c2cc(-c3cnc4ccc(C(F)F)nn34)ncn2)CC1 [II-539] | 10 to 1000 nM | 
COCCOC1CC(CNS(C)(=O)=O)CN(c2cc(-c3cnc4ccc(C(F)F)nn34)ncn2)C1 (stereo not shown) [II-549, N-((1-(6-(6-(Difluoromethyl)imidazo[1,2-b]pyridazin-3-yl)pyrimidin-4-yl)-5-(2-methoxyethoxy)piperidin-3-yl)methyl)methanesulfonamide] | 10 to 1000 nM | 
COCCOC1CC(CNS(C)(=O)=O)CN(c2cc(-c3cnc4ccc(C(F)F)nn34)ncn2)C1 (stereo not shown) [II-550, N-((1-(6-(6-(Difluoromethyl)imidazo[1,2-b]pyridazin-3-yl)pyrimidin-4-yl)-5-(2-methoxyethoxy)piperidin-3-yl)methyl)methanesulfonamide] | < 10 nM | 
CC1CCC(NS(C)(=O)=O)CN1c1cc(-c2cnc3ccc(C(F)F)nn23)ncn1 (stereo not shown) [II-551, N-(1-(6-(6-(Difluoromethyl)imidazo[1,2-b]pyridazin-3-yl)pyrimidin-4-yl)-6-methylpiperidin-3-yl)methanesulfonamide] | 10 to 1000 nM | 
CC1CCC(NS(C)(=O)=O)CN1c1cc(-c2cnc3ccc(C(F)F)nn23)ncn1 (stereo not shown) [II-552, N-(1-(6-(6-(Difluoromethyl)imidazo[1,2-b]pyridazin-3-yl)pyrimidin-4-yl)-6-methylpiperidin-3-yl)methanesulfonamide] | 10 to 1000 nM | 
CC1C(CO)CCCN1c1cc(-c2cnc3ccc(C(F)F)nn23)ncn1 (stereo not shown) [II-554, (1-(6-(6-(Difluoromethyl)imidazo[1,2-b]pyridazin-3-yl)pyrimidin-4-yl)-2-methylpiperidin-3-yl)methanol] | 10 to 1000 nM | 
